Converted amounts (≈) assume the structure as drawn. One block for each compound: values may come before it.
Columns and labels:
Test in all cases: In vitro antibacterial evaluation: minimum inhibitory concentration (MIC), broth dilution method
Type in all cases: cell-based
[1] = tested on: Enterococcus sp.; settings: for MIC Enterococcus faecalis (ATCC 29212): strain ATCC 29212; for MIC Enterococcus faecalis (GC 2242): strain GC 2242; for MIC Enterococcus faecium (GC 2243): strain GC 2243; for MIC Enterococcus faecalis (GC 2691): strain GC 2691; for MIC Enterococcus faecalis (GC 3059): strain GC 3059; for MIC Enterococcus faecalis (GC 4552): strain GC 4552; for MIC Enterococcus faecalis (GC 4553): strain GC 4553; for MIC Enterococcus faecalis (GC 4554): strain GC 4554; for MIC Enterococcus faecium (GC 4556): strain GC 4556; for MIC Enterococcus faecium (GC 4557): strain GC 4557; for MIC Enterococcus avium (GC 4558): strain GC 4558; for MIC Enterococcus faecalis (GC 6189): strain GC 6189
Description: (§1) The minimum inhibitory concentration (MIC), the lowest concentration of the antibiotic which inhibits growth of the test organism, is determined by the broth dilution method using Muller-Hinton II […] (Baltimore Biological Laboratories) following the recommendations of the National Committee for Clinical Laboratory Standards [Methods for dilution antimicrobial susceptibility tests for bacteria that grow aerobically, approved standard M7-A2, National Committee for Clinical Laboratory Standards, Villanova, Pa].
(§2) An inoculum level of 5×10^5 CFU/mL, and a range of antibiotic concentrations (64-0.06 μg/mL) is used. […] The test organisms include a spectrum of Gram-positive bacteria comprised of Staphylococcus sp., Streptococcus sp. and Enterococcus sp. These organisms include recent clinical isolates that are resistant to methicillin, penicillin and/or vancomycin.

[2] = tested on: Escherichia coli; settings: for MIC Escherichia coli (ATCC 25922): strain ATCC 25922; for MIC Escherichia coli (GC 4559): strain GC 4559
Description: as §1, §2

[3] = tested on: Staphylococcus sp.; settings: broth dilution, 18 hours at 35° C.
Description: as §1, §2

[4] = tested on: Streptococcus sp.; settings: for MIC Streptococcus pneumoniae (ATCC 6301): strain ATCC 6301; for MIC Streptococcus pneumoniae (GC 1894): strain GC 1894; for MIC Streptococcus pyogenes (GC 4563): strain GC 4563; for MIC Streptococcus agalactiae (GC 4564): strain GC 4564; for MIC Streptococcus pneumoniae (GC 4565): strain GC 4565
Description: as §1, §2

MIC Enterococcus faecalis (ATCC 29212) [1]: <0.5 µg/mL
MIC Enterococcus faecalis (GC 2242) [1]: <1 µg/mL
MIC Enterococcus faecium (GC 2243) [1]: 1 µg/mL (≈ 0.702 µM)
MIC Enterococcus faecalis (GC 2691) [1]: 1 µg/mL (≈ 0.702 µM)
MIC Enterococcus faecalis (GC 3059) [1]: 1 µg/mL (≈ 0.702 µM)
MIC Enterococcus faecalis (GC 4552) [1]: 1 µg/mL (≈ 0.702 µM)
MIC Enterococcus faecalis (GC 4553) [1]: 1 µg/mL (≈ 0.702 µM)
MIC Enterococcus faecalis (GC 4554) [1]: 1 µg/mL (≈ 0.702 µM)
MIC Enterococcus faecium (GC 4556) [1]: 1 µg/mL (≈ 0.702 µM)
MIC Enterococcus faecium (GC 4557) [1]: 1 µg/mL (≈ 0.702 µM)
MIC Enterococcus avium (GC 4558) [1]: 1 µg/mL (≈ 0.702 µM)
MIC Enterococcus faecalis (GC 6189) [1]: 1 µg/mL (≈ 0.702 µM)
MIC Escherichia coli (ATCC 25922) [2]: 64 µg/mL (≈ 44.9 µM)
MIC Escherichia coli (GC 4559) [2]: 64 µg/mL (≈ 44.9 µM)
MIC Escherichi coli (GC 4560) ([2]; strain GC 4560): 1 µg/mL (≈ 0.702 µM)
MIC Coagulase Negative Staphylococcus (GC 4547) ([3]; 5×10^5 CFU/mL): <0.5 µg/mL
MIC Coagulase Negative Staphylococcus (GC 4548) ([3]; 5×10^5 CFU/mL): <0.5 µg/mL
MIC Coagulase Negative Staphylococcus (GC 4549) ([3]; 5×10^5 CFU/mL): <0.5 µg/mL
MIC Coagulase Negative Staphylococcus (GC 4551) ([3]; 5×10^5 CFU/mL): <0.5 µg/mL
MIC Coagulase Negative Staphylococcus (GC 6257) ([3]; 5×10^5 CFU/mL): <0.5 µg/mL
MIC Staphylococcus aureus (ATCC 29213) ([3]; 5×10^5 CFU/mL): 1 µg/mL (≈ 0.702 µM)
MIC Staphylococcus aureus (GC 1131) ([3]; 5×10^5 CFU/mL): 1 µg/mL (≈ 0.702 µM)
MIC Staphylococcus aureus (GC 3051) ([3]; 5×10^5 CFU/mL): 1 µg/mL (≈ 0.702 µM)
MIC Staphylococcus aureus (GC 3053) ([3]; 5×10^5 CFU/mL): <0.5 µg/mL
MIC Staphylococcus aureus (GC 4541) ([3]; 5×10^5 CFU/mL): 1 µg/mL (≈ 0.702 µM)
MIC Staphylococcus aureus (GC 4542) ([3]; 5×10^5 CFU/mL): 1 µg/mL (≈ 0.702 µM)
MIC Staphylococcus aureus (GC 4544) ([3]; 5×10^5 CFU/mL): 1 µg/mL (≈ 0.702 µM)
MIC Staphylococcus aureus (GC 4545) ([3]; 5×10^5 CFU/mL): <0.5 µg/mL
MIC Staphylococcus aureus-SMITH (GC 4543) ([3]; 5×10^5 CFU/mL): 1 µg/mL (≈ 0.702 µM)
MIC Staphylococcus aureus (ATCC 29213) ([3]; strain ATCC 29213): 1 µg/mL (≈ 0.702 µM)
MIC Staphylococcus aureus (GC 1131) ([3]; strain GC 1131): 1 µg/mL (≈ 0.702 µM)
MIC Staphylococcus aureus (GC 3051) ([3]; strain GC 3051): 1 µg/mL (≈ 0.702 µM)
MIC Staphylococcus aureus (GC 3053) ([3]; strain GC 3053): <0.5 µg/mL
MIC Staphylococcus aureus (GC 4541) ([3]; strain GC 4541): 1 µg/mL (≈ 0.702 µM)
MIC Staphylococcus aureus (GC 4542) ([3]; strain GC 4542): 1 µg/mL (≈ 0.702 µM)
MIC Staphylococcus aureus-SMITH (GC 4543) ([3]; strain GC 4543): 1 µg/mL (≈ 0.702 µM)
MIC Staphylococcus aureus (GC 4544) ([3]; strain GC 4544): 1 µg/mL (≈ 0.702 µM)
MIC Staphylococcus aureus (GC 4545) ([3]; strain GC 4545): <0.5 µg/mL
MIC Coagulase Negative Staphylococcus (GC 4547) ([3]; strain GC 4547): <0.5 µg/mL
MIC Coagulase Negative Staphylococcus (GC 4548) ([3]; strain GC 4548): <0.5 µg/mL
MIC Coagulase Negative Staphylococcus (GC 4549) ([3]; strain GC 4549): <0.5 µg/mL
MIC Coagulase Negative Staphylococcus (GC 4551) ([3]; strain GC 4551): <0.5 µg/mL
MIC Coagulase Negative Staphylococcus (GC 6257) ([3]; strain GC 6257): <0.5 µg/mL
MIC Streptococcus pneumoniae (ATCC 6301) [4]: <0.5 µg/mL
MIC Streptococcus pneumoniae (GC 1894) [4]: <0.5 µg/mL
MIC Streptococcus pyogenes (GC 4563) [4]: <0.5 µg/mL
MIC Streptococcus agalactiae (GC 4564) [4]: <0.5 µg/mL
MIC Streptococcus pneumoniae (GC 4565) [4]: <0.5 µg/mL
Compound: CCCc1ccc(C2OCC3OC(OC4C(CO)OC(Oc5ccc(CC6NC(=O)C(C(C)c7ccccc7)NC(=O)CNC(=O)C(CO)NC(=O)C(C(O)C7CNC(=N)N7C7OC(CO)C(O)C(O)C7O)NC(=O)C(C(O)C7CNC(=N)N7)NC6=O)cc5)C(O)C4O)C(O)C(O)C3O2)cc1 (stereo not drawn) [Example 140, Cyclo[glycyl-β-methylphenylalanyl-O-[4-O-[4,6-O-(4-propylbenzylidene)hexopyranosyl]-hexopyranosyl]tyrosyl-3-(2-iminoimidazolidin-4-yl)seryl-3-(3-hexopyranosyl-2-iminoimidazolidin-4-yl)serylseryl]]
MIC Staphylococcus haemolyticus (GC 4546) ([3]; 5×10^5 CFU/mL): 1 µg/mL (≈ 0.702 µM)
MIC Staphylococcus haemolyticus (GC 4546) ([3]; strain GC 4546): 1 µg/mL (≈ 0.702 µM)

MIC Enterococcus faecalis (ATCC 29212) [1]: 2 µg/mL (≈ 1.4 µM)
MIC Enterococcus faecalis (GC 2242) [1]: 2 µg/mL (≈ 1.4 µM)
MIC Enterococcus faecium (GC 2243) [1]: 2 µg/mL (≈ 1.4 µM)
MIC Enterococcus faecalis (GC 2691) [1]: 2 µg/mL (≈ 1.4 µM)
MIC Enterococcus faecalis (GC 3059) [1]: 4 µg/mL (≈ 2.8 µM)
MIC Enterococcus faecalis (GC 4552) [1]: 2 µg/mL (≈ 1.4 µM)
MIC Enterococcus faecalis (GC 4553) [1]: 4 µg/mL (≈ 2.8 µM)
MIC Enterococcus faecalis (GC 4554) [1]: 4 µg/mL (≈ 2.8 µM)
MIC Enterococcus faecium (GC 4556) [1]: 2 µg/mL (≈ 1.4 µM)
MIC Enterococcus faecium (GC 4557) [1]: 2 µg/mL (≈ 1.4 µM)
MIC Enterococcus avium (GC 4558) [1]: 4 µg/mL (≈ 2.8 µM)
MIC Enterococcus faecalis (GC 6189) [1]: 2 µg/mL (≈ 1.4 µM)
MIC Escherichia coli (ATCC 25922) [2]: 32 µg/mL (≈ 22.4 µM)
MIC Escherichia coli (GC 4559) [2]: 32 µg/mL (≈ 22.4 µM)
MIC Coagulase Negative Staphylococcus (GC 4547) ([3]; 5×10^5 CFU/mL): 1 µg/mL (≈ 0.7 µM)
MIC Coagulase Negative Staphylococcus (GC 4548) ([3]; 5×10^5 CFU/mL): 0.25 µg/mL (≈ 0.175 µM)
MIC Coagulase Negative Staphylococcus (GC 4549) ([3]; 5×10^5 CFU/mL): 0.12 µg/mL (≈ 0.0839 µM)
MIC Coagulase Negative Staphylococcus (GC 4551) ([3]; 5×10^5 CFU/mL): 0.5 µg/mL (≈ 0.35 µM)
MIC Coagulase Negative Staphylococcus (GC 6257) ([3]; 5×10^5 CFU/mL): 0.25 µg/mL (≈ 0.175 µM)
MIC Staphylococcus aureus (ATCC 29213) ([3]; 5×10^5 CFU/mL): 2 µg/mL (≈ 1.4 µM)
MIC Staphylococcus aureus (GC 1131) ([3]; 5×10^5 CFU/mL): 1 µg/mL (≈ 0.7 µM)
MIC Staphylococcus aureus (GC 3051) ([3]; 5×10^5 CFU/mL): 1 µg/mL (≈ 0.7 µM)
MIC Staphylococcus aureus (GC 3053) ([3]; 5×10^5 CFU/mL): 1 µg/mL (≈ 0.7 µM)
MIC Staphylococcus aureus (GC 4541) ([3]; 5×10^5 CFU/mL): 0.5 µg/mL (≈ 0.35 µM)
MIC Staphylococcus aureus (GC 4542) ([3]; 5×10^5 CFU/mL): 0.5 µg/mL (≈ 0.35 µM)
MIC Staphylococcus aureus (GC 4544) ([3]; 5×10^5 CFU/mL): 4 µg/mL (≈ 2.8 µM)
MIC Staphylococcus aureus (GC 4545) ([3]; 5×10^5 CFU/mL): 1 µg/mL (≈ 0.7 µM)
MIC Staphylococcus aureus-SMITH (GC 4543) ([3]; 5×10^5 CFU/mL): 1 µg/mL (≈ 0.7 µM)
MIC Staphylococcus aureus (ATCC 29213) ([3]; strain ATCC 29213): 2 µg/mL (≈ 1.4 µM)
MIC Staphylococcus aureus (GC 1131) ([3]; strain GC 1131): 1 µg/mL (≈ 0.7 µM)
MIC Staphylococcus aureus (GC 3051) ([3]; strain GC 3051): 1 µg/mL (≈ 0.7 µM)
MIC Staphylococcus aureus (GC 3053) ([3]; strain GC 3053): 1 µg/mL (≈ 0.7 µM)
MIC Staphylococcus aureus (GC 4541) ([3]; strain GC 4541): 0.5 µg/mL (≈ 0.35 µM)
MIC Staphylococcus aureus (GC 4542) ([3]; strain GC 4542): 0.5 µg/mL (≈ 0.35 µM)
MIC Staphylococcus aureus-SMITH (GC 4543) ([3]; strain GC 4543): 1 µg/mL (≈ 0.7 µM)
MIC Staphylococcus aureus (GC 4544) ([3]; strain GC 4544): 4 µg/mL (≈ 2.8 µM)
MIC Staphylococcus aureus (GC 4545) ([3]; strain GC 4545): 1 µg/mL (≈ 0.7 µM)
MIC Coagulase Negative Staphylococcus (GC 4547) ([3]; strain GC 4547): 1 µg/mL (≈ 0.7 µM)
MIC Coagulase Negative Staphylococcus (GC 4548) ([3]; strain GC 4548): 0.25 µg/mL (≈ 0.175 µM)
MIC Coagulase Negative Staphylococcus (GC 4549) ([3]; strain GC 4549): 0.12 µg/mL (≈ 0.0839 µM)
MIC Coagulase Negative Staphylococcus (GC 4551) ([3]; strain GC 4551): 0.5 µg/mL (≈ 0.35 µM)
MIC Coagulase Negative Staphylococcus (GC 6257) ([3]; strain GC 6257): 0.25 µg/mL (≈ 0.175 µM)
MIC Streptococcus pneumoniae (ATCC 6301) [4]: <0.06 µg/mL
MIC Streptococcus pneumoniae (GC 1894) [4]: <0.06 µg/mL
MIC Streptococcus pyogenes (GC 4563) [4]: <0.06 µg/mL
MIC Streptococcus agalactiae (GC 4564) [4]: <0.06 µg/mL
MIC Streptococcus pneumoniae (GC 4565) [4]: <0.06 µg/mL
Compound: CSc1ccc(C2OCC3OC(OC4C(CO)OC(Oc5ccc(CC6NC(=O)C(C(C)c7ccccc7)NC(=O)CNC(=O)C(CO)NC(=O)C(C(O)C7CNC(=N)N7C7OC(CO)C(O)C(O)C7O)NC(=O)C(C(O)C7CNC(=N)N7)NC6=O)cc5)C(O)C4O)C(O)C(O)C3O2)cc1 (stereo not drawn) [Example 144]
MIC Staphylococcus haemolyticus (GC 4546) ([3]; 5×10^5 CFU/mL): 1 µg/mL (≈ 0.7 µM)
MIC Staphylococcus haemolyticus (GC 4546) ([3]; strain GC 4546): 1 µg/mL (≈ 0.7 µM)
